In patent US10633704B2, “Diagnostic and immunotherapy compositions and methods for disease states mediated by inhibitor-resistant CD8 T-cells” (priority 2010, dated 2020):
Entries after “also recorded” stand apart in the source; their conditions may differ.

Tested on: CD8bm12-1 T cell clone
Experiment: Proliferation assay (3H-thymidine) of CsA/RAPA-resistant CD8 T cell clone CD8bm12-1 activated by immobilized anti-CD3 without or with anti-CD28
Type: cell-based, mouse (C57BL/6)
Experimental: Proliferation assays were done with anti-CD3 (145-2Cl 1) without or with anti-CD28 (37.51). Antibodies in 50 μl of PBS/well were used to coat 96-well tissue culture plates (Costar) overnight at 4° C. Antibodies were shaken off and wells washed 1× with 150 μl of RPMI complete media prior to their use in proliferation assays. Experimental wells were pulsed with 0.5 μCi/well ^3H-thymidine (ICN, Costa Mesa, Calif.) for 10-12 hours at 24-36 or 36-48 hours of the culture cycle. Cyclosporine A (Sigma Chemical Co.; St. Louis, Mo.) dissolved in 200 proof ethanol and CH-223191 (Calbiochem; San Diego, Calif.) dissolved in dimethylsulfoxide were used at indicated concentrations. The no treatment controls in each experiment included vehicle controls for both ethanol and dimethylsulfoxide.
FIGS. 6A and 6B show proliferation plots of CD8bm1 (▪) and CD8bm12-1 (●), both activated by immobilized anti-CD3 and exposed to a full range of cyclosporine A (the results shown in FIGS. 6A and 6B result from two separate experiments conducted).

SMILES: Cc1ccccc1N=Nc1ccc(NC(=O)c2ccnn2C)c(C)c1 [CH-223191]
- effect on proliferation of CD8bm12-1 (media with 1 ug/ml CsA, anti-CD3, CH-223191 3 uM): no effect
- effect on proliferation of CD8bm12-1 (media with 1 ug/ml CsA, anti-CD3, CH-223191 10 uM): moderate inhibitory effect
- effect on proliferation of CD8bm12-1 (media with 1 ug/ml CsA, anti-CD3, CH-223191 30 uM): dramatic inhibitory effect; also recorded: completely blocked
- effect on proliferation of CD8bm12-1 (media with 1 ug/ml CsA, anti-CD3 and anti-CD28, CH-223191 30 uM): completely blocked proliferation
- effect on proliferation of CD8bm12-1 (media without CsA, anti-CD3, CH-223191 at 30 uM, 10 uM or 3 uM): no discernable negative effect
- effect on proliferation of CD8bm12-1 (media without CsA, anti-CD3 and anti-CD28, CH-223191): little discernable effect
